Assay results taken from PubChem BioAssay (NCI).
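Growth conditions: 96-well plates. Treatment: test compound, 48 hours, 5 concentrations. Analysis: linear interpolation between bracketing concentrations; unreached endpoints set to highest concentration. TGI: concentration producing complete growth inhibition.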 The source made the active and inactive calls. No stated cut-off is given here; in the data, active means GI50 below about 0.43 µM; inactive means the rest.

How the values were obtained:
Assay in all cases: inhibition of tumour cell growth, NCI panel, 48 h
SF-295 CNS = tested on: SF-295 CNS
SF-539 CNS = tested on: SF-539 CNS
CCRF-CEM leukemia = tested on: CCRF-CEM leukemia
TK-10 renal = tested on: TK-10 renal
HCC-2998 colon = tested on: HCC-2998 colon
NCI-H226 lung = tested on: NCI-H226 lung
A498 renal = tested on: A498 renal
SW-620 colon = tested on: SW-620 colon
SR leukemia = tested on: SR leukemia
ACHN renal = tested on: ACHN renal
786-0 renal = tested on: 786-0 renal
SK-MEL-5 melanoma = tested on: SK-MEL-5 melanoma
SK-OV-3 ovarian = tested on: SK-OV-3 ovarian
HS 578T breast = tested on: HS 578T breast
A549 NSCLC = tested on: A549 NSCLC
COLO 205 colon = tested on: COLO 205 colon
MDA-N = tested on: MDA-N
HT29 colon = tested on: HT29 colon
HCT-116 colon = tested on: HCT-116 colon
U251 CNS = tested on: U251 CNS
UACC-257 melanoma = tested on: UACC-257 melanoma
OVCAR-3 ovarian = tested on: OVCAR-3 ovarian
NCI-H460 lung = tested on: NCI-H460 lung
UO-31 renal = tested on: UO-31 renal
PC-3 prostate = tested on: PC-3 prostate
M14 melanoma = tested on: M14 melanoma
NCI/ADR-RES ovarian = tested on: NCI/ADR-RES ovarian
CAKI-1 renal = tested on: CAKI-1 renal
IGROV1 ovarian = tested on: IGROV1 ovarian
SF-268 CNS = tested on: SF-268 CNS
NCI-H522 lung = tested on: NCI-H522 lung
MDA-MB-231 breast = tested on: MDA-MB-231 breast
HL-60(TB) leukemia = tested on: HL-60(TB) leukemia
HOP-62 NSCLC = tested on: HOP-62 NSCLC
NCI-H23 lung = tested on: NCI-H23 lung
SNB-19 CNS = tested on: SNB-19 CNS
OVCAR-8 ovarian = tested on: OVCAR-8 ovarian
SNB-75 CNS = tested on: SNB-75 CNS
MALME-3M melanoma = tested on: MALME-3M melanoma
HOP-92 NSCLC = tested on: HOP-92 NSCLC
K-562 leukemia = tested on: K-562 leukemia
LOX IMVI melanoma = tested on: LOX IMVI melanoma
T-47D breast = tested on: T-47D breast
MDA-MB-435 = tested on: MDA-MB-435
DU-145 prostate = tested on: DU-145 prostate
UACC-62 melanoma = tested on: UACC-62 melanoma
KM12 colon = tested on: KM12 colon
OVCAR-4 ovarian = tested on: OVCAR-4 ovarian
MOLT-4 leukemia = tested on: MOLT-4 leukemia
EKVX NSCLC = tested on: EKVX NSCLC
HCT-15 colon = tested on: HCT-15 colon
RPMI-8226 leukemia = tested on: RPMI-8226 leukemia
BT-549 breast = tested on: BT-549 breast
RXF 393 renal = tested on: RXF 393 renal
SK-MEL-2 melanoma = tested on: SK-MEL-2 melanoma
OVCAR-5 ovarian = tested on: OVCAR-5 ovarian
SK-MEL-28 melanoma = tested on: SK-MEL-28 melanoma
SN12C renal = tested on: SN12C renal
MCF7 breast = tested on: MCF7 breast

In the case of `CCCC(=O)OCC(COC(=O)CCC)OC(=O)CCC`, the TGI (SF-295 CNS) was > 100 µM, the outcome (SF-295 CNS) was “inactive” and the TGI (SF-539 CNS) was > 100 µM. For the same compound, the outcome (SF-539 CNS) was “inactive”, the TGI (CCRF-CEM leukemia) was > 100 µM and the outcome (CCRF-CEM leukemia) was “inactive”. For the same compound, the TGI (TK-10 renal) was > 100 µM, the outcome (TK-10 renal) was “inactive” and the TGI (HCC-2998 colon) was > 100 µM. The outcome (HCC-2998 colon) was “inactive”, the TGI (NCI-H226 lung) was > 100 µM and the outcome (NCI-H226 lung) was “inactive”. The TGI (A498 renal) was > 100 µM, the outcome (A498 renal) was “inactive” and the TGI (SW-620 colon) was > 100 µM. The outcome (SW-620 colon) was “inactive”, the outcome (SR leukemia) was “inactive” and the TGI (ACHN renal) was > 100 µM. The outcome (ACHN renal) was “inactive”, the TGI (786-0 renal) was > 100 µM and the outcome (786-0 renal) was “inactive”. The TGI (SK-MEL-5 melanoma) was > 100 µM, the outcome (SK-MEL-5 melanoma) was “inactive” and the TGI (SK-OV-3 ovarian) was > 100 µM. For the same compound, the outcome (SK-OV-3 ovarian) was “inactive”, the TGI (HS 578T breast) was > 100 µM and the outcome (HS 578T breast) was “inactive”. For the same compound, the TGI (A549 NSCLC) was > 100 µM, the outcome (A549 NSCLC) was “inactive” and the TGI (COLO 205 colon) was > 100 µM. For the same compound, the outcome (COLO 205 colon) was “inactive”, the TGI (MDA-N) was > 100 µM and the outcome (MDA-N) was “inactive”. For the same compound, the TGI (HT29 colon) was > 100 µM, the outcome (HT29 colon) was “inactive” and the TGI (HCT-116 colon) was > 100 µM. The outcome (HCT-116 colon) was “inactive”, the TGI (U251 CNS) was > 100 µM and the outcome (U251 CNS) was “inactive”. The TGI (UACC-257 melanoma) was > 100 µM, the outcome (UACC-257 melanoma) was “inactive” and the TGI (OVCAR-3 ovarian) was > 100 µM. For the same compound, the TGI (NCI-H460 lung) was > 100 µM, the outcome (NCI-H460 lung) was “inactive” and the TGI (UO-31 renal) was > 100 µM. The outcome (UO-31 renal) was “inactive”, the TGI (PC-3 prostate) was > 100 µM and the outcome (PC-3 prostate) was “inactive”. For the same compound, the TGI (M14 melanoma) was > 100 µM, the outcome (M14 melanoma) was “inactive” and the TGI (NCI/ADR-RES ovarian) was 88.6 µM. The outcome (NCI/ADR-RES ovarian) was “inactive”, the TGI (CAKI-1 renal) was > 100 µM and the outcome (CAKI-1 renal) was “inactive”. The TGI (IGROV1 ovarian) was > 100 µM, the TGI (SF-268 CNS) was > 100 µM and the outcome (SF-268 CNS) was “inactive”. For the same compound, the TGI (NCI-H522 lung) was > 100 µM, the TGI (MDA-MB-231 breast) was > 100 µM and the outcome (MDA-MB-231 breast) was “inactive”. The TGI (HL-60(TB) leukemia) was 90.7 µM, the outcome (HL-60(TB) leukemia) was “inactive” and the TGI (HOP-62 NSCLC) was > 100 µM. For the same compound, the outcome (HOP-62 NSCLC) was “inactive”, the TGI (NCI-H23 lung) was > 100 µM and the outcome (NCI-H23 lung) was “inactive”. The TGI (SNB-19 CNS) was > 100 µM, the outcome (SNB-19 CNS) was “inactive” and the TGI (OVCAR-8 ovarian) was > 100 µM. For the same compound, the outcome (OVCAR-8 ovarian) was “inactive”, the TGI (SNB-75 CNS) was > 100 µM and the outcome (SNB-75 CNS) was “inactive”. The TGI (MALME-3M melanoma) was > 100 µM, the outcome (MALME-3M melanoma) was “inactive” and the TGI (HOP-92 NSCLC) was > 100 µM. For the same compound, the TGI (K-562 leukemia) was > 100 µM, the outcome (K-562 leukemia) was “inactive” and the TGI (LOX IMVI melanoma) was > 100 µM. The outcome (LOX IMVI melanoma) was “inactive”, the TGI (T-47D breast) was > 100 µM and the TGI (MDA-MB-435) was > 100 µM. The outcome (MDA-MB-435) was “inactive”, the TGI (DU-145 prostate) was > 100 µM and the outcome (DU-145 prostate) was “inactive”. For the same compound, the TGI (UACC-62 melanoma) was > 100 µM, the TGI (KM12 colon) was > 100 µM and the outcome (KM12 colon) was “inactive”. The TGI (OVCAR-4 ovarian) was > 100 µM, the outcome (OVCAR-4 ovarian) was “inactive” and the TGI (MOLT-4 leukemia) was > 100 µM. The outcome (MOLT-4 leukemia) was “inactive”, the TGI (EKVX NSCLC) was > 100 µM and the outcome (EKVX NSCLC) was “inactive”. For the same compound, the TGI (HCT-15 colon) was > 100 µM, the outcome (HCT-15 colon) was “inactive” and the TGI (RPMI-8226 leukemia) was > 100 µM. The outcome (RPMI-8226 leukemia) was “inactive”, the TGI (BT-549 breast) was > 100 µM and the TGI (RXF 393 renal) was > 100 µM. The TGI (SK-MEL-2 melanoma) was > 100 µM, the outcome (SK-MEL-2 melanoma) was “inactive” and the TGI (OVCAR-5 ovarian) was > 100 µM. The TGI (SK-MEL-28 melanoma) was > 100 µM, the outcome (SK-MEL-28 melanoma) was “inactive” and the TGI (SN12C renal) was > 100 µM. The outcome (SN12C renal) was “inactive”, the TGI (MCF7 breast) was > 100 µM and the outcome (MCF7 breast) was “inactive”.
`O=C(NC(N1CCN(c2cc3c(cc2F)c(=O)c(C(=O)O)cn3C2CC2)CC1)(C(F)(F)F)C(F)(F)F)c1ccccc1` was tested, and the TGI (SF-295 CNS) was > 100 µM, the TGI (SF-539 CNS) was 80.8 µM and the TGI (CCRF-CEM leukemia) was 72.3 µM. The TGI (TK-10 renal) was 87.4 µM, the TGI (HCC-2998 colon) was 66 µM and the TGI (NCI-H226 lung) was > 100 µM. The TGI (A498 renal) was 94.4 µM, the TGI (SW-620 colon) was > 100 µM and the TGI (SR leukemia) was 87.2 µM. For the same compound, the TGI (ACHN renal) was > 100 µM, the TGI (786-0 renal) was > 100 µM and the TGI (SK-MEL-5 melanoma) was 62.9 µM. The TGI (SK-OV-3 ovarian) was 94.1 µM, the TGI (HS 578T breast) was > 100 µM and the TGI (A549 NSCLC) was > 100 µM. For the same compound, the TGI (COLO 205 colon) was 34.8 µM, the TGI (MDA-N) was > 100 µM and the TGI (HT29 colon) was > 100 µM. For the same compound, the TGI (HCT-116 colon) was > 100 µM, the TGI (U251 CNS) was > 100 µM and the TGI (UACC-257 melanoma) was 80.8 µM. The TGI (OVCAR-3 ovarian) was 96.1 µM, the TGI (NCI-H460 lung) was > 100 µM and the TGI (UO-31 renal) was 81.5 µM. For the same compound, the TGI (PC-3 prostate) was > 100 µM, the TGI (M14 melanoma) was > 100 µM and the TGI (NCI/ADR-RES ovarian) was > 100 µM. For the same compound, the TGI (CAKI-1 renal) was 85.4 µM, the TGI (IGROV1 ovarian) was > 100 µM and the TGI (SF-268 CNS) was > 100 µM. For the same compound, the TGI (NCI-H522 lung) was 38.7 µM, the TGI (MDA-MB-231 breast) was 70.6 µM and the TGI (HL-60(TB) leukemia) was 53.8 µM. For the same compound, the TGI (HOP-62 NSCLC) was > 100 µM, the TGI (NCI-H23 lung) was 89.2 µM and the TGI (SNB-19 CNS) was > 100 µM. The TGI (OVCAR-8 ovarian) was > 100 µM, the TGI (SNB-75 CNS) was > 100 µM and the TGI (MALME-3M melanoma) was 77.5 µM. For the same compound, the TGI (HOP-92 NSCLC) was 93.3 µM, the TGI (K-562 leukemia) was > 100 µM and the TGI (LOX IMVI melanoma) was > 100 µM. The TGI (T-47D breast) was > 100 µM, the TGI (MDA-MB-435) was > 100 µM and the TGI (DU-145 prostate) was > 100 µM. The TGI (UACC-62 melanoma) was > 100 µM, the TGI (KM12 colon) was 84.4 µM and the TGI (OVCAR-4 ovarian) was > 100 µM. The TGI (MOLT-4 leukemia) was 62 µM, the TGI (EKVX NSCLC) was > 100 µM and the TGI (HCT-15 colon) was 61.6 µM. The TGI (RPMI-8226 leukemia) was 69.9 µM, the TGI (BT-549 breast) was > 100 µM and the TGI (RXF 393 renal) was > 100 µM. For the same compound, the TGI (SK-MEL-2 melanoma) was > 100 µM, the TGI (OVCAR-5 ovarian) was 65.4 µM and the TGI (SK-MEL-28 melanoma) was > 100 µM. The TGI (SN12C renal) was > 100 µM and the TGI (MCF7 breast) was > 100 µM.
